Measurements from patent publication US12384753B2, “17-beta-hydroxysteroid dehydrogenase type 13 inhibitors and methods of use thereof” (Enanta Pharmaceuticals, Inc., priority 2021, dated 2025).

Biological target: Recombinant human HSD17B13 (Homo sapiens (Human), UniProt Q7Z5P4)
Experiment: HSD17B13 rapid-fire mass spectrometry assay (RF/MS assay)
Type: biochemical
Conditions: inhibition of HSD17B13; LTB4 10 μM, NAD+ 0.5 mM, RT 3 h; IC50 ranges A-E
Procedure, shortened: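 Sf9-expressed human HSD17B13 (80 nM) with 10 μM LTB4 and 0.5 mM NAD+, incubated with compound (0–100 μM) for 3 h at RT in Tris pH 7.5/BSA/Tween-20. After formic acid quench, LTB4 conversion to 12-oxo-LTB4 measured by RapidFire MS/MS. IC50 from normalised residual activity, duplicates.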

Chain of Recombinant human HSD17B13 (Q7Z5P4 20-300): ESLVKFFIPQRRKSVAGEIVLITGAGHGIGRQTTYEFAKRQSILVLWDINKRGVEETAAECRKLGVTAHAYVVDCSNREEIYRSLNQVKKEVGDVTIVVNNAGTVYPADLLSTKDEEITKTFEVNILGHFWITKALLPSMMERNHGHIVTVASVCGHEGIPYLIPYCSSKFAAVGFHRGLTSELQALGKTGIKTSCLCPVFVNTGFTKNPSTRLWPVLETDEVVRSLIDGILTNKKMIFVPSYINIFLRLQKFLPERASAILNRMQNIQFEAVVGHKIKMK

IC50 | Compound
100 to 500 nM | COc1cc(C(=O)O)c(F)cc1NS(=O)(=O)c1csc(-c2ccc(-c3ccc(C45CC6C[C@H](C4)C[C@H](C6)C5)cc3)c(OC(F)(F)F)c2)n1 [Example 750]
< 100 nM | CCc1cc(C2=CCC(C)(C)CC2)ccc1-c1nc(S(=O)(=O)Nc2cc(F)c(C(=O)O)cc2OC)cs1 [Example 563]
< 100 nM | COc1cc(C(=O)O)c(F)cc1NS(=O)(=O)c1cnc(-c2ccc([C@H]3CC[C@@H](C(F)(F)F)CC3)cc2)s1 [Example 724]
100 to 500 nM | COc1cc(C(=O)O)ccc1NS(=O)(=O)c1ccc(-c2cnn(C3CCCCC3)c2)cc1F [Example 355]
500 to 1000 nM | COc1cc(C(=O)O)ccc1NS(=O)(=O)c1csc(-c2ccc(C3CCCC3)cc2)n1 [Example 300]
100 to 500 nM | COc1cc(C(=O)O)c(F)cc1NS(=O)(=O)c1csc(-c2ccc(-c3ccc(C45CC6C[C@H](C4)C[C@H](C6)C5)cc3)c(OC)c2)n1 [Example 743]
< 100 nM | COc1cc(C(=O)O)ccc1NS(=O)(=O)c1csc(C#Cc2ccc(C(F)(F)F)cc2)n1 [Example 182]
< 100 nM | COc1cc(C(=O)O)c(F)cc1NS(=O)(=O)c1csc(-c2ccc(C3CCC(C)(C)CC3)cc2C(F)(F)F)n1 [Example 524, 4-((2-(4-(4,4-dimethylcyclohexyl)-2-(trifluoromethyl)phenyl)thiazole)-4-sulfonamido)-2-fluoro-5-methoxybenzoic acid]
1000 to 100000 nM | CN(C)S(=O)(=O)NC(=O)c1ccc(NS(=O)(=O)c2cnc(-c3ccc(F)cc3)s2)cc1 [Example 32]
< 100 nM | COc1cc(C(=O)O)c(F)cc1NS(=O)(=O)c1csc(-c2ccc(-c3ccc(C(F)(C(F)(F)F)C(F)(F)F)cc3)cc2C(F)(F)F)n1 [Example 795]
< 100 nM | COc1cc(C(=O)O)ccc1NS(=O)(=O)c1coc(-c2ccc(C(C)C)cc2)n1 [Example 466, 4-((2-(4-isopropylphenyl)oxazole)-4-sulfonamido)-3-methoxybenzoic acid]
< 100 nM | COc1cc(C(=O)O)c(F)cc1NS(=O)(=O)c1csc(-c2ccc(C3CCC(C)(C)CC3)c(OC)c2F)n1 [Example 548]
500 to 1000 nM | COc1cc(C(=O)O)ccc1NS(=O)(=O)c1csc(-c2ccc3ccccc3c2)n1 [Example 130]
> 100000 nM | O=S(=O)(Nc1ccccc1)c1cnc(-c2ccc(F)cc2)s1 [Example 24]
< 100 nM | COc1cc(C(=O)O)c(F)cc1NS(=O)(=O)c1csc(-c2ccc(C3=CCC(C(C)(C)C)CC3)c(F)c2C)n1 (stereo not shown) [Example 594]
100 to 500 nM | O=C(O)c1ccc(NS(=O)(=O)c2csc(-c3ccc(O)cc3)n2)c(O)c1 [Example 112]
1000 to 100000 nM | COc1cc(C(=O)O)ccc1NS(=O)(=O)c1csc(-c2ccncc2)n1 [Example 100]
< 100 nM | COc1cc(C(=O)O)c(F)cc1NS(=O)(=O)c1csc(C#Cc2ccccc2Cl)n1 [Example 235]
100 to 500 nM | COc1cc(C(=O)O)c(F)cc1NS(=O)(=O)c1ccc2nc(-c3ccc(C4CCCCC4)cc3)sc2c1 [Example 661]
< 100 nM | COc1cc(C(=O)O)c(F)cc1NS(=O)(=O)c1csc(-c2ccc(C3=CCC(C)(C)CC3)c(F)c2C(F)F)n1 [Example 582]
< 100 nM | COc1cc(C(=O)O)ccc1NS(=O)(=O)c1ccc(-c2cccc(C)c2)s1 [Example 211]
500 to 1000 nM | CCOc1cc(C(=O)O)ccc1NS(=O)(=O)c1cnc(-c2ccc(F)cc2)s1 [Example 1]

IC50 | Compound
100 to 500 nM | COc1cc(C(=O)O)c(F)cc1NS(=O)(=O)c1cnc(-c2ccc([C@H]3CC[C@H](C(C)C)CC3)cc2)s1 [Example 769]
< 100 nM | COc1cc(C(=O)O)c(F)cc1NS(=O)(=O)c1csc(-c2ccc([C@H]3CC[C@@H](C(F)(F)F)CC3)c(F)c2C)n1 [Example 602]
500 to 1000 nM | COc1cc(C(=O)O)ccc1NS(=O)(=O)c1cncc(-c2ccc(C3CCCCC3)cc2)c1 [Example 433, 4-((5-(4-cyclohexylphenyl)pyridine)-3-sulfonamido)-3-methoxybenzoic acid]
100 to 500 nM | COc1cc(C(=O)O)ccc1NS(=O)(=O)c1ccc(-c2cnc(-c3ccccc3)s2)c(F)c1 [Example 337]
1000 to 100000 nM | O=C(O)c1ccccc1NS(=O)(=O)c1cnc(-c2ccc(F)cc2)s1 [Example 16]
< 100 nM | COc1cc(C(=O)O)c(F)cc1NS(=O)(=O)c1csc(-c2ccc(C3=CCC(C)(C)CC3)c(OC)c2)n1 [Example 523]
100 to 500 nM | COc1cc(C(=O)O)c(F)cc1NS(=O)(=O)c1csc(-c2ccc(F)cc2)n1 [Example 767]
100 to 500 nM | COc1cc(C(=O)O)ccc1NS(=O)(=O)c1csc(C#Cc2ccc(F)cc2)n1 [Example 184]
< 100 nM | COc1cc(C(=O)O)c(F)cc1NS(=O)(=O)c1csc(-c2ccc(C3CCC(C)(C)CC3)c(F)c2C(F)F)n1 [Example 583]
1000 to 100000 nM | COc1cc(C(=O)O)ccc1NS(=O)(=O)c1csc(-c2ccc(C#N)cc2)n1 [Example 148]
< 100 nM | COc1cc(C(=O)O)c(F)cc1NS(=O)(=O)c1csc(-c2ccc([C@H]3CC[C@H](C(C)(C)C)CC3)cc2)n1 [Example 762]
100 to 500 nM | COc1cc(C(=O)O)c(F)cc1NS(=O)(=O)c1ccn(-c2ccc([C@H]3CC[C@@H](C(F)(F)F)CC3)cc2)n1 [Example 691]
100 to 500 nM | COc1cc(C(=O)O)ccc1NS(=O)(=O)c1ccc(-c2cccc(-c3ccc(C)cc3)c2)s1 [Example 250, 3-methoxy-4-((5-(4′-methyl-[1,1′-biphenyl]-3-yl)thiophene)-2-sulfonamido)benzoic acid]
< 100 nM | COc1ccccc1C#Cc1nc(S(=O)(=O)Nc2cc(F)c(C(=O)O)cc2OC)cs1 [Example 243]
< 100 nM | COc1cc(C(=O)O)c(F)cc1NS(=O)(=O)c1csc(C#Cc2cccc(C)c2)n1 [Example 236]
1000 to 100000 nM | COc1cc(C(=O)O)ccc1NS(=O)(=O)c1ccc2sc(-c3ccc(C4CCC(C)(C)CC4)cc3)nc2c1 [Example 456, 4-((2-(4-(4,4-dimethylcyclohexyl)phenyl)benzo[d]thiazole)-5-sulfonamido)-3-methoxybenzoic acid]
100 to 500 nM | COc1cc(C(=O)O)ccc1NS(=O)(=O)N1Cc2nc(C3=CCC(C(C)(C)C)CC3)sc2C1 (stereo not shown) [Example 362]
100 to 500 nM | COc1cc(C(=O)O)ccc1NS(=O)(=O)c1csc(-c2ccc([C@H]3CC[C@@H](C(F)(F)F)CC3)cc2)n1 [Example 608]
< 100 nM | COc1cc(C(=O)O)c(F)cc1NS(=O)(=O)c1csc(C#Cc2ccc(Cl)cc2)n1 [Example 228]
100 to 500 nM | COc1cc(C(=O)O)ccc1NS(=O)(=O)c1csc(N2CCN(c3ccc(C(F)(F)F)cc3)CC2)n1 [Example 272]
1000 to 100000 nM | COc1cc(C(=O)O)ccc1NS(=O)(=O)c1csc(-c2ccccc2C#N)n1 [Example 159]
1000 to 100000 nM | O=C(O)c1ccc(NS(=O)(=O)c2cnc(-c3ccc(F)cc3)s2)c(OC2CC2)c1 [Example 43]

IC50 | Compound
1000 to 100000 nM | COc1ccc(NS(=O)(=O)c2cnc(-c3ccc(F)cc3)s2)cc1 [Example 42]
100 to 500 nM | COc1cc(C(=O)O)ccc1NS(=O)(=O)c1csc(C#Cc2ccc([N+](=O)[O-])cc2)n1 [Example 209]
100 to 500 nM | COc1cc(C(=O)O)c(F)cc1NS(=O)(=O)c1csc(-c2ccc(-c3ccc([C@H]4CC[C@H](C(C)C)CC4)cc3C(F)(F)F)cc2C(F)(F)F)n1 [Example 754]
1000 to 100000 nM | COc1cc(C(N)=O)ccc1NS(=O)(=O)c1cnc(-c2ccc(F)cc2)s1 [Example 120]
100 to 500 nM | COc1cc(C(=O)O)ccc1NS(=O)(=O)c1ccc(-c2ccc(F)cc2)cc1 [Example 316]
100 to 500 nM | COc1cc(C(=O)O)c(F)cc1NS(=O)(=O)c1coc(-c2ccc([C@H]3CC[C@@H](C(C)C)CC3)cc2C(F)(F)F)n1 [Example 673]
500 to 1000 nM | COc1cccc(-c2nc(S(=O)(=O)Nc3ccc(C(=O)O)cc3OC)cs2)c1 [Example 140]
< 100 nM | COc1cc(C(=O)O)c(F)cc1NS(=O)(=O)c1ccn(-c2ccc([C@H]3CC[C@H](C(C)C)CC3)cc2)n1 [Example 694]
100 to 500 nM | COc1cc(C(=O)O)c(F)cc1NS(=O)(=O)c1csc(-c2ccc(-c3cccs3)cc2)n1 [Example 645]
100 to 500 nM | COc1cc(C(=O)O)c(F)cc1NS(=O)(=O)c1cnn(-c2ccc([C@H]3CC[C@@H](C(F)(F)F)CC3)cc2)c1 [Example 685, 2-fluoro-5-methoxy-4-((1-(4-((1s,4s)-4-(trifluoromethyl)cyclohexyl)phenyl)-1H-pyrazole)-4-sulfonamido)benzoic acid]
1000 to 100000 nM | O=C(O)c1ccc2c(c1)CCN2S(=O)(=O)c1ccccc1 [Example 13]
> 100000 nM | O=C(O)c1cccc(NS(=O)(=O)c2cnc(-c3ccc(F)cc3)s2)c1 [Example 17]
100 to 500 nM | COc1cc(C(=O)O)c(F)cc1NS(=O)(=O)c1cnn(-c2ccc(C3CCCCC3)cc2)c1 [Example 656]
1000 to 100000 nM | COc1cc(C(=O)O)ccc1NS(=O)(=O)c1csc(C#Cc2ccc(C(=O)O)c(OC(F)(F)F)c2)n1 [Example 394]
100 to 500 nM | COc1cc(C(=O)O)c(F)cc1NS(=O)(=O)c1csc(-c2ccc(C3CC4CCC3CC4)cc2)n1 (stereo not shown) [Example 550]
100 to 500 nM | COc1cc(C(=O)O)c(F)cc1NS(=O)(=O)c1ccc2sc(-c3ccc(C4CCC4)cc3)nc2c1 [Example 663]
100 to 500 nM | COc1cc(C(=O)O)ccc1NS(=O)(=O)c1ccc(-c2cccc(-c3ccccc3)c2)s1 [Example 249, 4-((5-([1,1′-biphenyl]-3-yl)thiophene)-2-sulfonamido)-3-methoxybenzoic acid]
1000 to 100000 nM | COc1cc(C#N)ccc1NS(=O)(=O)c1cnc(-c2ccc(F)cc2)s1 [Example 123]
100 to 500 nM | COc1cc(C(=O)O)c(F)cc1NS(=O)(=O)c1cnc(-c2ccc(C3=CCC(F)(F)CC3)cc2)s1 [Example 727]
< 100 nM | CCOc1c(F)c(-c2nc(S(=O)(=O)Nc3cc(F)c(C(=O)O)cc3OC)cs2)ccc1[C@H]1CC[C@@H](C(F)(F)F)CC1 [Example 814]
